This note sets out measurements from patent US10259796B2, “Oxaspiro[2.5]octane derivatives and analogs” (Zafgen, Inc., priority 2011, dated 2019).

The structures appear in SMILES notation. Read-outs that look alike come from different tables or passages of the source.

Assay [1] can be described thus: Mice weight loss, 7 day, 1 mg/kg/day oral gavage, diet-induced obese mice. To be noted: Mus musculus, 168 h, read-out: Mice Wt Loss 7 day % WL 1 mpk. The assay is classed as in vivo. The source says: Lean body mass is important to normal function in subjects. Substantial loss of lean body mass is not a desirable consequence of a therapy for an overweight or obese subject. A study is undertaken to analyze weight loss with respect to lean body mass.
Mice are divided into two groups, a diet-induced obese group and a lean group (control). For the diet-induced obese group, C57BL/6NTac mice maintained prior to and during the study on a diet containing 60% fat on a kilocalorie basis are further divided into two groups, fifteen mice per group. Average body weight of these diet-induced obese mice is 40 g at the start of the study. For the lean group, fifteen C57BLI6NTac mice are maintained on a diet containing 4.3% by weight fat prior to and during the study. Average body weight of these lean mice is 33 g at the start of the study. Daily food consumption is also recorded.
Compounds of the invention are administered to one of the diet-induced obese mice groups by oral gavage as a solution in 10% DMSO, at dose of 1 mg/kg/day, 7 days. The other diet-induced obese mice group and the lean mice group are not administered anything.

Another assay addresses T1, recombinant human MetAP2 (Homo sapiens, UniProt P50579).
T1 construct: made in house; host or cells: High Five insect cells (Bac-to-Bac baculovirus)
Kind of assay: MetAP2 enzyme assay (inhibition of recombinant MetAP2, Met-Gly-Met-Met substrate). The format is biochemical. To be noted: 50 nM. How it is done:
Exemplary procedures for expression and purification of MetAP2 are shown in Griffith et al. (PNAS (1998) 95(26):15183-15188). Briefly, recombinant His-tagged human MetAP2 is expressed by using a Bac-to-Bac baculovirus expression system (GIBCO/BRL). Recombinant baculovirus stocks are generated and amplified as per the manufacturer's instructions. Protein is harvested 36 hr after baculovirus infection of two 15-cm plates of High Five cells.
The cell pellet are weighed and lysed (in 5 ml/g of wet pellet) in pre-chilled lysis buffer [buffer B+1% Nonidet P-40/1 mM phenymethylsulfonyl fluoride (PMSF)/2 μg/ml leupeptin/2 μg/ml aprotinin/1 μg/ml pepstatin]. The lysate is incubated on ice for 10 min and centrifuged at 10,000×g for 10 min. […] The Talon resin is pelleted by centrifugation at 1,200×g for 3 min and washed with 4×10 ml of buffer B. During the final wash, the resin is slurried into a Bio-Rad Econo column. The 6×His-tagged MetAP2 is eluted with 6 ml of 50 mM imidazole in buffer B, and 0.5 ml fractions are collected. The amount and purity of recombinant MetAP2 is analyzed by the absorbance at 280 nm and SDS/PAGE (10% gel). The fractions containing the highest amounts of MetAP2 are pooled and dialyzed against 3 liters of buffer B overnight before storage at 4° C.
An enzyme assay is performed in a 96-well format as described in Griffith et al. (PNAS (1998) 95(26):15183-15188). […] To begin the enzymatic reaction, Met-Gly-Met-Met is added to a final concentration of 4 mM and incubated at 37° C. The reaction is quenched after 20 min by adding EDTA to a concentration of 10 mM. Released methionine is quantitated as described in Ben-Bassat et al. (J Bacteriol (1987) 169:751-757).
IC50 values are calculated and compounds herein are determined to be active inhibitors of MetAP2, with some having nanomolar activities.

The nature of assay [2]: Cell Based Assay (inhibition range).
Where [3] appears, read: 1 hr, read-out: MetAP2 Enzyme Assay 1 hr 50 nM.
[4] abbreviates: 2 hr, read-out: MetAP2 Enzyme Assay 2 hr 50 nM.
The mark [5] stands for this setting: 4 hr, read-out: MetAP2 Enzyme Assay 4 hr 50 nM.
Setting [6] is: diet-induced obese C57BL/6NTac mice, oral gavage, 1 mg/kg/day, 7 days.

T1 sequence (P50579 whole entry): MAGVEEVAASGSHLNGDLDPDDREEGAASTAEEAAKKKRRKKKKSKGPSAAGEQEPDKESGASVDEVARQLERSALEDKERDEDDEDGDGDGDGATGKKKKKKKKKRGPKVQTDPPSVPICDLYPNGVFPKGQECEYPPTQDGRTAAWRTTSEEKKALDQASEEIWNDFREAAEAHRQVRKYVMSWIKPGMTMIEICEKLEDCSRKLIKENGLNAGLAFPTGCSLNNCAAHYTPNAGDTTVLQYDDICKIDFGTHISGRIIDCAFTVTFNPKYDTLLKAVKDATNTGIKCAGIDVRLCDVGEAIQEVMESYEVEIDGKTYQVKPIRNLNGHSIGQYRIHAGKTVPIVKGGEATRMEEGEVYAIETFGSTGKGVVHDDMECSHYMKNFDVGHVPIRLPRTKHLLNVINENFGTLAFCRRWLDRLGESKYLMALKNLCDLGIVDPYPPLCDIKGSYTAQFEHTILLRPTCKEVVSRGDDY

The term IC50 denotes the concentration at which inhibition is half-maximal. High values mean lower potency, low ones higher potency. On to `CO[C@@H]1[C@H](OC(=O)N[C@@H](C(N)=O)C(C)C)CC[C@]2(CO2)[C@H]1[C@@]1(C)O[C@@H]1CC=C(C)C` [Example 3], for which the change in vivo at 1 mg/kg in assay [1] (po) is 5%. Also, the inhibition at 0.05 µM stood at 62% on recombinant human MetAP2 (setting [3]), 90% on recombinant human MetAP2 (setting [4]) and 100% at recombinant human MetAP2 (setting [5]). The IC50 in assay [2] (cells printed in nM) was < 10 nM.
`COC(=O)CCCCCCCCC(=O)O[C@@H]1CC[C@]2(CO2)[C@@H]([C@@]2(C)O[C@@H]2CC=C(C)C)[C@@H]1OC` [Example 4]: the change in vivo at 1 mg/kg in assay [1] (setting [6]) is 12.5%. The inhibition at 0.05 µM on recombinant human MetAP2 (setting [3]) is 46%; at recombinant human MetAP2 (setting [4]) it was 58%; on recombinant human MetAP2 (setting [5]) it was 94%. In assay [2] (cells printed in nM), this compound had an IC50 of 10 to 100 nM.
`CO[C@@H]1[C@H](OC(=O)CCCCCCCCC(=O)O)CC[C@]2(CO2)[C@H]1[C@@]1(C)O[C@@H]1CC=C(C)C` [Example 5]: the change in vivo at 1 mg/kg in assay [1] (po) turned out to be 9.5%. Also, the inhibition at 0.05 µM amounted to 15% on recombinant human MetAP2 (setting [3]), 30% on recombinant human MetAP2 (setting [4]) and 50% at recombinant human MetAP2 (setting [5]). Further, the IC50 in assay [2] (cells printed in nM) is < 10 nM.
On to `COC(=O)CCCCCCCCCO[C@H]1CC[C@]2(CO2)[C@@H]([C@@]2(C)O[C@@H]2CC=C(C)C)[C@@H]1OC` [Example 6], for which, in assay [1] (setting [6]), the change in vivo at 1 mg/kg was 1.7%. Besides, the inhibition at 0.05 µM at recombinant human MetAP2 (setting [3]), on recombinant human MetAP2 (setting [4]) and on recombinant human MetAP2 (setting [5]) was 0% throughout. Also, the IC50 in assay [2] (in uM) is > 1000 nM.
In the case of `CO[C@@H]1[C@H](NCCCCCCCCCC(=O)O)CC[C@]2(CO2)[C@H]1[C@@]1(C)O[C@@H]1CC=C(C)C` [Example 7], in assay [1] (po), the change in vivo at 1 mg/kg is 0.5%. The inhibition at 0.05 µM at recombinant human MetAP2 (setting [3]), at recombinant human MetAP2 (setting [4]) and on recombinant human MetAP2 (setting [5]) was 0% in each case. Also, the IC50 in assay [2] (in uM) is > 1000 nM.
As for `CO[C@@H]1C(=O)CC[C@]2(CO2)[C@H]1[C@@]1(C)O[C@@H]1CC=C(C)C` [Example 8, fumagillin ketone], in assay [1] (po), the change in vivo at 1 mg/kg turned out to be 11.3%. Further, the inhibition at 0.05 µM on recombinant human MetAP2 (setting [3]) came out at 46%; on recombinant human MetAP2 (setting [4]), 65%; at recombinant human MetAP2 (setting [5]), 93%. For the same compound, the 50% inhibitory concentration (IC50) in assay [2] (cells printed in nM) was < 10 nM.
On to `CO[C@@H]1[C@H](OC(=O)CCCCCCCCC(=O)O)CC[C@]2(CO2)[C@H]1[C@@]1(C)O[C@@H]1CCC(C)C` [Example 9], for which the change in vivo at 1 mg/kg in assay [1] (setting [6]) worked out at 3.3%. Further, the inhibition at 0.05 µM at recombinant human MetAP2 (setting [3]) turned out to be 12%; at recombinant human MetAP2 (setting [4]) it was 35%; on recombinant human MetAP2 (setting [5]), 50%. The IC50 in assay [2] (in uM) fell in the range of 100 to 1000 nM.
As to `CCCCCCCCCCC(=O)O[C@@H]1CC[C@]2(CO2)[C@@H]([C@@]2(C)O[C@@H]2CC=C(C)C)[C@@H]1OC` [Example 12], the change in vivo at 1 mg/kg in assay [1] (setting [6]) is 8.4%. Moreover, the values for the inhibition at 0.05 µM on recombinant human MetAP2 (setting [3]), on recombinant human MetAP2 (setting [4]) and on recombinant human MetAP2 (setting [5]) were 0%, 5% and 29%, respectively. Also, in assay [2] (in uM), the IC50 lay within 100 to 1000 nM.
`C=C1CC[C@]2(CO2)[C@@H]([C@@]2(C)O[C@@H]2CC=C(C)C)[C@@H]1OC` [Example 15]: the change in vivo at 1 mg/kg in assay [1] (po) was determined as 7.9%. In addition, the inhibition at 0.05 µM was 26% on recombinant human MetAP2 (setting [3]), 32% at recombinant human MetAP2 (setting [4]) and 40% at recombinant human MetAP2 (setting [5]). In addition, the IC50 in assay [2] (in uM) was in the range of 100 to 1000 nM.
For `CCCCCCCC/C=C\CCCCCCCC(=O)O[C@@H]1CC[C@]2(CO2)[C@@H]([C@@]2(C)O[C@@H]2CC=C(C)C)[C@@H]1OC` [Example 16], in that order: 5.4%, 0%, 0%, 0% and > 1000 nM.
As to `CO[C@H]1[C@H]([C@@]2(C)O[C@@H]2CC=C(C)C)[C@]2(CCC1(F)F)CO2` [Example 17], in assay [1] (po), the change in vivo at 1 mg/kg was 0.1%. Further, the inhibition at 0.05 µM at recombinant human MetAP2 (setting [3]) worked out at 29%; at recombinant human MetAP2 (setting [4]), 44%; on recombinant human MetAP2 (setting [5]) it was 40%. Further, the IC50 in assay [2] (in uM) was > 1000 nM.
